Data reported in US11708357B2, “Crystal form of pyrrolidinyl urea derivative and application thereof” (ZHANGZHOU PIEN TZE HUANG PHARMACEUTICAL CO., LTD., priority 2020, dated 2023).

Assays:
Format in all cases: in vitro ADME
[1] = Metabolic stability in human liver microsomes; conditions: pH 7.4, 0.5 mg protein/mL, read-out: Intrinsic clearance rate of liver microsomes, Human
Procedure: (§1) The metabolic stability of the test compound in human and rat liver microsomes was tested.
(§2) Test compound (10 mM), Testosterone (reference compound, 10 mM), Diclofenac (reference compound, 10 mM) and Propafenone (reference compound, 10 mM).
(§3) 1. 100 mM potassium phosphate buffer (pH 7.4).
(§4) 1. Intermediate solution: 45 μL of DMSO (with 450 μL of 1:1 methanol/water) was used to dilute 5 μL of the sample for test compound or reference compound.
(§5) 2. Working solution: 450 μL of 100 mM potassium phosphate buffer was used to dilute the intermediate solution.
(§6) 10 μL of the working solution of the test compound or reference compound was added to all plates (T0, T5, T10, T20, T30, T60, and NCF60).
(§7) 680 μL of liver microsome solution was added to each well of 96-well plates, then 80 μL was added to each well of the plates, and the plates were placed at 37° C. for pre-incubation for approximately 10 minutes.
(§8) 10 μL of 100 mM potassium phosphate buffer was added to each well of the NCF60 plate.
(§9) After the pre-incubation, 90 μL NADPH regeneration system working solution was added to each well of the 96-well plates, and then 10 μL was added to each well of the plates to initiate the reaction.
(§10) Incubation for an appropriate time (such as 5, 10, 20, 30, and 60 minutes). […]
(§11) The half-life T1/2 and the intrinsic clearance rate by liver microsome Clint(mic) were calculated by the following formulas: Ct=Cij·e^−k^s^·i • when […]

[2] = Metabolic stability in rat liver microsomes; conditions: pH 7.4, 0.5 mg protein/mL, read-out: Intrinsic clearance rate of liver microsomes, Rat
Procedure: as §1, §2, §3, §4, §5, §6, §7, §8, §9, §10, §11

[3] = target: T1, CYP1A2 (Homo sapiens, UniProt P05177); assay: Cytochrome P450 isozyme inhibitory activity test, CYP1A2; conditions: liver microsomes; human liver microsome
T1 construct: from tissue; host or cells: human liver microsomes
T1 sequence (P05177 1-516): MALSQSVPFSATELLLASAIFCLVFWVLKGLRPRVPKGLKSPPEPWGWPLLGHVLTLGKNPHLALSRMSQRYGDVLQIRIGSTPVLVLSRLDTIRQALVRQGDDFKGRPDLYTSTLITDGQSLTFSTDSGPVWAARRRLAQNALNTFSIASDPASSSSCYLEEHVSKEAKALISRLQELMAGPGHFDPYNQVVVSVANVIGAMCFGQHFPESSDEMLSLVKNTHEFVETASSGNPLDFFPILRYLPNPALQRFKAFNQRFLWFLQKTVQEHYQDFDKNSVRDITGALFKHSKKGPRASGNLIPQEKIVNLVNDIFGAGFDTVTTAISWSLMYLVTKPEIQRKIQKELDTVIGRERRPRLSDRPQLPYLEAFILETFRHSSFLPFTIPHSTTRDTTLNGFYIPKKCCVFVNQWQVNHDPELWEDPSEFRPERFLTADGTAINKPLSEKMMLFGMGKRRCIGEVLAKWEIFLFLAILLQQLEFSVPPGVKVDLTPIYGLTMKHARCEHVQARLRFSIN
Procedure: (§12) The inhibitory activities of the test compound on different subtypes of human cytochrome P450 isozymes were determined. The test compound, standard inhibitor (100× final concentration), and a mixed substrate working solution were prepared; the microsome frozen in −80° C. refrigerator was thawed. […]

[4] = target: T2, CYP3A4 (Homo sapiens, UniProt P08684); assay: Cytochrome P450 isozyme inhibitory activity test, CYP3A4; conditions: liver microsomes; human liver microsome
T2 construct: from tissue; host or cells: human liver microsomes
T2 sequence (P08684 whole entry): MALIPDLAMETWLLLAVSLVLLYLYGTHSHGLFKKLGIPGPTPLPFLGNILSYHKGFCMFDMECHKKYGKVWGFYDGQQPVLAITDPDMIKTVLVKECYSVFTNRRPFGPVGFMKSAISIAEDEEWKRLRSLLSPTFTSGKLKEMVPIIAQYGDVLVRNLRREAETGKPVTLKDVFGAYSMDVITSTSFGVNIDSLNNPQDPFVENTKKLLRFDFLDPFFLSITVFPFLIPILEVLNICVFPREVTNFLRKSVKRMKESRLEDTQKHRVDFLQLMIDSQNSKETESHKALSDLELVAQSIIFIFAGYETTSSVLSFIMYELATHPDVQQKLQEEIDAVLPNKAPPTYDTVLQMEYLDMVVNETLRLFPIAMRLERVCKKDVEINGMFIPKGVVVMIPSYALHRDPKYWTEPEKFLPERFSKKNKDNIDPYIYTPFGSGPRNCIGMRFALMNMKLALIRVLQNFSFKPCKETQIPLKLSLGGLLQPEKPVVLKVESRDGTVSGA
Procedure: as §12

[5] = target: T3, CYP2C19 (Homo sapiens, UniProt P33261); assay: Cytochrome P450 isozyme inhibitory activity test, CYP2C19; conditions: liver microsomes; human liver microsome
T3 construct: from tissue; host or cells: human liver microsomes
T3 sequence (P33261 whole entry): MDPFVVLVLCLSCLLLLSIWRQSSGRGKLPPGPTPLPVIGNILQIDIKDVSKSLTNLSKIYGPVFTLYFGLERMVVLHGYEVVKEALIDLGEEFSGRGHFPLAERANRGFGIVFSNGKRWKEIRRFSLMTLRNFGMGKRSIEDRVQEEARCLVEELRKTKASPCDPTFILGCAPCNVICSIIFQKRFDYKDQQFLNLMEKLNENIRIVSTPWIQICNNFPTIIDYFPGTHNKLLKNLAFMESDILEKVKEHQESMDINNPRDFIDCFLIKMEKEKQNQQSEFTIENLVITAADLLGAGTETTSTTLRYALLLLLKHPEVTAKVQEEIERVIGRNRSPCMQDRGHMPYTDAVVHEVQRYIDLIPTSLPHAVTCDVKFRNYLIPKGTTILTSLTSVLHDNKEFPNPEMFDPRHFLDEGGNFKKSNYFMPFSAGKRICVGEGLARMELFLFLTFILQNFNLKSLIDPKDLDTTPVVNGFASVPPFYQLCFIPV
Procedure: as §12

CLint scaled [1]: 51.7 mL/min/kg
CLint scaled [2]: 24.9 mL/min/kg
IC50 at 10 min [3]: > 50 µM
IC50 at 10 min [4]: > 50 µM
IC50 at 10 min [5]: > 50 µM
Compound: COCCN1C[C@@H](n2ccc(F)c2)[C@H](NC(=O)Nc2c(C)c(-c3cnc(C4(F)COC4)nc3)nn2-c2ccccc2)C1 [Compound of formula (I)]
